This passage reports IC50 results from BindingDB's records for doi:10.1016/j.bmc.2011.10.064 (Saitama University, 2011).

Test [1] is described as follows: Inhibition of Human influenza virus A/PR/8/34 (H1N1) hemagglutininin activity in chicken erythrocytes after 1 hr.
Test [2] is described as follows: Inhibition of Human influenza virus A/Aichi/2/68 (H3N2) hemagglutininin activity in chicken erythrocytes after 1 hr.

Each structure is given as a SMILES string. A value given as a limit tells only on which side of the number the result lay.

With `C=CC(=O)N[C@H]1[C@H]([C@H](O)[C@H](O)CO)O[C@@](SCCCCCCCCCCCC)(C(=O)O)C[C@@H]1O`, the IC50 in test [1] was determined as 7.81 µM; in test [2], 3.9 µM.
`C=CC(=O)N[C@H]1[C@H]([C@H](O)[C@H](O)CO)OC(O)(C(=O)O)C[C@@H]1O` (stereo partly specified): the IC50 in test [1] and in test [2] was greater than 250 µM in each case.
`C=CC(=O)NCCCCCC(=O)N[C@H]1[C@H]([C@H](O)[C@H](O)CO)O[C@@](SCCCCCCCCCCCC)(C(=O)O)C[C@@H]1O`: the IC50 in test [1] and in test [2] was 7.81 µM in each case.
